“Also recorded” adds a separate entry of the source.
Tests used:
[1] = system: human tumor cell line (HTCL) panel (A549, KB, KBvin, DU145); test: SRB antiproliferative activity, ranges over the HTCL panel; assay type: cell-based; details: read-out: GI50 range over HTCL panel
A549 cells [2] = test: Immunocytochemistry of cellular microtubules; assay type: cell-based, human; details: A549, 24 h; 5f 3 nM, paclitaxel 100 nM, colchicine 100 nM
A549 cells [3] = test: Cell cycle analysis by propidium iodide flow cytometry; assay type: cell-based, human; details: A549, 24 h; 5f 3 nM, colchicine 300 nM
[4] = system: tubulin (vinblastine site); test: Competitive inhibition assay, BODIPY FL-vinblastine binding to tubulin; design: species or system dog; details: tubulin 4 μM, BODIPY FL-vinblastine 2 μM; even at 30–100 μM
[5] = Toxicity in the nude mouse MCF7 xenograft study; details: nude mice; for death: dead/total
[6] = data reported previously; cited from earlier work
MCF7 tumor xenografts = test: Nude mouse MCF7 xenograft antitumor assay; assay type: in vivo; details: 4 mg/kg i.v. every 3 days; p < 0.05 from day 10 onward

| Compound | GI50 [1] [nM] | other results |
| --- | --- | --- |
| COc1ccc2c(c1)C(=O)CCN2c1nc(Cl)nc2ccccc12 [5a, 2-Chloro-4-(N-(6-methoxy-2,3-dihydro-4-oxoquinolinyl))-quinazoline] | 27 to 33 | – |
| COc1ccc2c(c1)OCCN2c1nc(C)nc2ccccc12 [5e] | 153 to 211 | – |
| Cc1ccc2c(c1)CCCN2c1nc(Cl)nc2ccccc12 [4a, 2-Chloro-4-(N-(6-methyl-3,4-dihydroquinolinyl))quinazoline] | 43 to 57 | – |
| Cc1ccc2c(c1)CCCN2c1nc(C)nc2ccccc12 [4b, 2-Methyl-4-(N-(6-methyl-1,2,3,4-tetrahydroquinolinyl))-quinazoline] | 169 to 211 | – |
| COc1ccc2c(c1)CCN2c1nc(Cl)nc2ccccc12 [5h, 2-Chloro-4-(N-(5-methoxy)indolinyl)quinazoline] | 170 to 320 | – |
| COc1ccc2c(c1)C(O)CCN2c1nc(C)nc2ccccc12 (centres unmarked) [5c, 4-(N-(4-Hydroxy-6-methoxy-1,2,3,4-tetrahydroquinolinyl))-2-methylquinazoline] | 17 to 19 | – |
| CC(=O)O[C@H]1C(=O)[C@@]2(C)[C@H]([C@H](OC(=O)c3ccccc3)[C@]3(O)C[C@H](OC(=O)[C@H](O)[C@@H](NC(=O)c4ccccc4)c4ccccc4)C(C)=C1C3(C)C)[C@]1(OC(C)=O)CO[C@@H]1C[C@@H]2O [paclitaxel] | – | effect on cellular microtubule network (A549 cells [2]): retained a spindle-shaped microtubule network |
| COc1cc2c(c(OC)c1OC)-c1ccc(OC)c(=O)cc1[C@@H](NC(C)=O)CC2 [colchicine, reference compound] | – | effect on cellular microtubule network (A549 cells [2]): microtubule network disappeared; effect on the cell cycle (A549 cells [3]): arrested at the G2/M phase |
| COc1ccc2c(c1)C(=O)CCN2c1nc(C)nc2ccccc12 [5b, 4-(N-(6-Methoxy-2,3-dihydro-4-oxoquinolinyl))-2-methyl-quinazoline] | 19 to 24 | – |
| COc1ccc2c(c1)CCCN(c1nc(C)nc3ccccc13)C2 [5m, 4-(N-(7-Methoxy-2,3,4,5-tetrahydro-1H-benzo[c]azepinyl))-2-methylquinazoline] | 5450 to 19600 | – |
| COc1ccc2c(c1)NC(=O)CN2c1nc(C)nc2ccccc12 [5f, 2-Methyl-4-(7-methoxy-2-oxo-3,4-dihydroquinoxalin-4(1H)-yl)quinazoline] | 1.9 to 3.2 | effect on binding of BODIPY FL-vinblastine to tubulin [4]: did not significantly change; also recorded: did not compete; toxicity observation ([5]; 4 mg/kg i.v. every 3 days, 4 mg/kg): toxicity and death; also recorded: all seven mice died; also recorded: death of all treated mice; death ([5]; 4 mg/kg i.v., Q3D × 6): 7/7; effect on cellular microtubule network (A549 cells [2]): microtubule network disappeared; effect on the cell cycle (A549 cells [3]): arrested at the G2/M phase |
| Cc1nc(N2CCCc3cc(Br)ccc32)c2ccccc2n1 [4c, 4-(N-(6-Bromo-1,2,3,4-tetrahydroquinolinyl))-2-methylqui-nazoline] | 169 to 211 | – |
| COc1ccc2c(c1)CCCN2c1nc(C)nc2ccccc12 [1b, 2-methyl-4-(6-methoxy-3,4-dihydroquinolin-1(2H)-yl)quinazoline] | – | death ([5]; 4 mg/kg i.v., Q3D × 6): 1/6; human liver microsome t1/2 [6]: 25.2 min |
| COc1ccc2c(c1)CCCCN2c1nc(C)nc2ccccc12 [5k, 4-(N-(7-Methoxy-2,3,4,5-tetrahydro-1H-benzo[b]azepinyl))-2-methylquinazoline] | 18 to 21 | – |
| COc1ccc2c(c1)N(C)C(=O)CN2c1nc(C)nc2ccccc12 [5g, 2-Methyl-4-(1-methyl-7-methoxy-2-oxo-3,4-dihydroquinox-alin-4-yl)quinazoline] | 17 to 25 | growth of MCF7 tumor xenografts (tumor volume vs control) (MCF7 tumor xenografts): significantly inhibited; body weight change (%) ([5]; 4 mg/kg i.v., Q3D × 6): +2.28%; death ([5]; 4 mg/kg i.v., Q3D × 6): 0/7 |
| COc1ccc2c(c1)CCCN2c1nc(Cl)nc2ccccc12 [1a, 2-chloro-4-(6-methoxy-3,4-dihydroquinolin-1(2H)-yl)quinazoline] | – | death ([5]; 4 mg/kg i.v., Q3D × 6): 0/5 |
| COc1ccc2c(c1)CCN2c1nc(C)nc2ccccc12 [5i, 4-(N-(5-Methoxy)indolinyl)-2-methylquinazoline] | 170 to 320 | – |
| COc1ccc2c(c1)OCCN2c1nc(Cl)nc2ccccc12 [5d, 2-Chloro-4-(N-(7-methoxy-3,4-dihydro-2H-benzo[b][1,4]-oxazinyl))quinazoline] | 153 to 211 | – |
| COc1ccc2c(c1)CCCN(c1nc(Cl)nc3ccccc13)C2 [5l, 2-Chloro-4-(N-(7-methoxy-2,3,4,5-tetrahydro-1H-benzo[c]-azepinyl))quinazoline] | 5450 to 19600 | – |

Source: article PMC3983391 (Journal of medicinal chemistry, 2014)
